Test results taken from the supplement of paper PMC10307832.

Experiments:
Test in all cases: relative viability (nuclei count vs DMSO), 5 days (fraction); higher = more cells survive
[1] = compound: C1CNCCC1C2=CC(=NN2)C3=CC=NC=C3 + N=C(N)NC(=N)NCCc1ccccc1 [Phenformin] (partner 250 µM)
In short: (§1)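 Lung cancer cell lines, seeded in 1536-well plates, were treated the following day by pin tool with a single drug or with five library-drug doses (not always all listed) in √10 steps on top of a fixed anchor-drug dose. Cells were fixed and nuclei stained in one step after 5 days, and nuclei were counted. Relative viability is the nuclei count for treated wells divided by that for vehicle wells, reported as medians of duplicate plates.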

[2] = compound: C[C@@H](N)c1ccc(C(=O)Nc2ccnc3[nH]ccc23)cc1 + CCNC(=O)c1noc(-c2cc(C(C)C)c(O)cc2O)c1-c1ccc(CN2CCOCC2)cc1 [Luminespib] (partner 0.01 µM)
In short: as §1

[3] = compound: C[C@@H](N)c1ccc(C(=O)Nc2ccnc3[nH]ccc23)cc1 + CC(=O)Nc1cccc(-n2c(=O)n(C3CC3)c(=O)c3c(Nc4ccc(I)cc4F)n(C)c(=O)c(C)c32)c1 [Trametinib] (partner 0.02 µM)
In short: as §1

[4] = compound: C1CNCCC1C2=CC(=NN2)C3=CC=NC=C3 + CC1(C)CCC(c2ccc(Cl)cc2)=C(CN2CCN(c3ccc(C(=O)NS(=O)(=O)c4ccc(N[C@H](CCN5CCOCC5)CSc5ccccc5)c(S(=O)(=O)C(F)(F)F)c4)cc3)CC2)C1 [Navitoclax] (partner 0.5 µM)
In short: as §1

| Cell Line | relative viability ([1]; first compound 0.08 µM) | relative viability ([1]; first compound 0.8 µM) | relative viability ([1]; first compound 2.53 µM) | relative viability ([1]; first compound 8 µM) | relative viability ([2]; first compound 0.04 µM) | relative viability ([2]; first compound 0.1265 µM) | relative viability ([2]; first compound 0.4 µM) | relative viability ([2]; first compound 1.265 µM) | relative viability ([2]; first compound 4 µM) | relative viability ([3]; first compound 0.04 µM) | relative viability ([3]; first compound 0.1265 µM) | relative viability ([3]; first compound 0.4 µM) | relative viability ([3]; first compound 1.265 µM) | relative viability ([3]; first compound 4 µM) | relative viability ([4]; first compound 0.08 µM) | relative viability ([4]; first compound 0.8 µM) | relative viability ([4]; first compound 2.53 µM) | relative viability ([4]; first compound 8 µM) |
| --- | --- | --- | --- | --- | --- | --- | --- | --- | --- | --- | --- | --- | --- | --- | --- | --- | --- | --- |
| NCI-H2170 | 0.433 | 0.394 | 0.456 | 0.441 | 0.735 | 0.708 | 0.623 | 0.649 | 0.502 | 0.959 | 0.944 | 0.926 | 0.999 | 0.939 | 0.472 | 0.697 | 0.72 | 0.698 |
| HCC-366 | 0.653 | 0.656 | 0.618 | 0.659 | – | – | – | – | – | 0.345 | 0.332 | 0.388 | 0.399 | 0.375 | 1.02 | 1.12 | 1.07 | 1.08 |
| NCI-H2347 | 0.398 | 0.225 | 0.412 | 0.48 | 0.469 | 0.308 | 0.784 | – | 0.795 | 0.283 | 0.337 | 0.366 | 0.304 | 0.175 | 0.784 | 0.556 | 0.855 | 0.823 |
| COR-L 105 | 0.541 | 0.419 | 0.508 | 0.528 | 0.733 | 0.635 | 0.596 | 0.559 | 0.346 | 0.441 | 0.518 | 0.449 | 0.417 | 0.458 | 0.751 | 0.706 | 0.774 | 0.788 |
| 201T | 0.434 | 0.464 | 0.461 | 0.415 | 1.02 | 1.02 | 1.08 | 1.14 | 1.14 | 0.701 | 0.712 | 0.733 | 0.758 | 0.815 | 1.25 | 1.15 | 1.2 | 1.18 |
| NCI-H2126 | 0.483 | 0.51 | 0.556 | 0.577 | 1 | 0.951 | 1.01 | 1.01 | 0.806 | 0.515 | 0.561 | 0.534 | 0.637 | 0.676 | 0.858 | 0.832 | 0.821 | 0.828 |
| LC-2-ad | – | 0.676 | 0.639 | 0.612 | 0.864 | 0.987 | 0.837 | – | 0.659 | 0.957 | 0.911 | 0.883 | 0.926 | 0.727 | 0.721 | 0.5 | 0.503 | 0.35 |
| NCI-H2085 | 0.744 | 0.418 | 0.801 | 0.817 | 0.453 | 0.41 | 0.405 | 0.386 | 0.38 | 0.653 | 0.702 | 0.652 | 0.726 | 0.583 | 1.21 | 0.869 | 1.18 | 1.24 |
| NCI-H358 | 0.199 | 0.361 | 0.339 | 0.28 | 0.231 | 0.213 | 0.348 | 0.237 | 0.364 | 0.157 | 0.133 | 0.138 | 0.121 | 0.139 | – | – | – | – |
| H3255 | 0.366 | 0.323 | 0.429 | 0.434 | 0.778 | 1.04 | 1 | 0.763 | 0.944 | 0.704 | 0.694 | 0.748 | 0.757 | 0.583 | 0.52 | 0.444 | 0.738 | 0.537 |
| NCI-H2228 | 0.328 | 0.368 | 0.286 | 0.359 | 0.069 | 0.147 | 0.116 | 0.122 | 0.178 | 0.556 | 0.428 | 0.886 | 0.395 | 0.475 | 0.82 | 1.31 | 0.647 | 0.951 |
| CAL-12T | 0.598 | 0.663 | 0.654 | 0.616 | 0.297 | 0.421 | 0.322 | 0.432 | 0.22 | 0.34 | 0.408 | 0.38 | 0.447 | 0.409 | 1.11 | 1.45 | 1.29 | 1.43 |
| A-427 | 0.375 | 0.38 | 0.323 | 0.299 | 0.79 | 0.898 | 0.976 | – | 0.804 | 0.88 | 0.876 | 0.953 | 0.73 | 0.662 | 0.954 | 0.913 | 1.02 | 0.93 |
| HARA | 0.516 | 0.403 | 0.43 | 0.491 | – | 0.738 | 0.675 | – | 0.608 | 0.918 | 1.01 | 0.804 | 0.549 | 0.936 | 1.13 | 1.14 | 1.17 | 1.2 |
| NCI-H1793 | 0.307 | 0.162 | 0.441 | 0.426 | 0.165 | 0.184 | 0.178 | – | 0.183 | 0.46 | 0.442 | 0.452 | – | 0.61 | 0.305 | 0.331 | 0.414 | 0.526 |
| NCI-H1623 | 0.6 | 0.502 | 0.642 | 0.637 | 0.657 | 0.494 | 0.563 | 0.491 | 0.591 | – | – | – | – | – | – | – | – | – |
| NCI-H2009 | 0.481 | 0.528 | 0.51 | 0.489 | 0.966 | 0.957 | 0.952 | 0.836 | 0.815 | 0.219 | 0.268 | 0.236 | 0.21 | 0.214 | 1.16 | 1.18 | 1.17 | 1.14 |
| ABC-1 | 0.244 | 0.195 | 0.259 | 0.257 | 1 | 0.678 | 0.529 | 0.553 | 0.811 | – | – | – | – | – | – | – | – | – |
| IA-LM | – | – | – | – | – | – | – | – | – | – | – | – | – | – | 0.919 | 0.749 | 0.687 | 0.611 |
| NCI-H322M | 0.796 | 0.77 | 0.856 | 0.864 | 1.08 | 1.1 | 1.03 | – | 0.742 | 0.625 | 0.61 | 0.701 | 0.617 | 0.684 | 1.22 | 1.19 | 1.24 | 1.18 |
